The source of these data is US4103082A, “Aminocyclitol derivatives and process for producing the same” (priority 1975, dated 1978).

Each structure is given as a SMILES string. Values after ≈ are worked out from the molar mass of the structure shown.

Assay [1] has as its system antibiotic-resistant microorganisms. The settings on record: J. Antibiotics, 24 (10) 711, (1971); cited from earlier work.
A further assay deals with Mycobacterium 607. The assay can be described thus: paper disk method, inhibitory zone diameter. The class given is cell-based. The settings on record: Mycobacterium, 607, read-out: inhibitory zone diameter.
Another assay deals with Pseudomonas 1007. In words: paper disk method, inhibitory zone diameter. Type of assay: cell-based. The settings on record: Pseudomonas, 1007, read-out: inhibitory zone diameter.
The next assay has as its system Klebsiella 7. In words: paper disk method, inhibitory zone diameter. Type of assay: cell-based. Conditions: Klebsiella, 7, read-out: inhibitory zone diameter.
Assay [2] concerns Bacillus subtilis ATCC 6633. The assay can be described thus: paper disk method, inhibitory zone diameter. The class given is cell-based. The settings on record: ATCC6633, read-out: inhibitory zone diameter.
The subject of another assay is E. coli K-12. In words: paper disk method, inhibitory zone diameter. The class given is cell-based. Conditions: Escherichia coli, K12, read-out: inhibitory zone diameter.
A further assay concerns Klebsiella 6. In words: paper disk method, inhibitory zone diameter. The class given is cell-based. Conditions: Klebsiella, 6, read-out: inhibitory zone diameter.
Assay [3] concerns Staphylococcus aureus 6538P. The assay can be described thus: paper disk method, inhibitory zone diameter. Type of assay: cell-based. The settings on record: read-out: inhibitory zone diameter.
Assay [4] concerns E. coli HL-1629 (Kanamycin-resistant strain). In words: microbe, parasite or virus in culture. The class given is cell-based. Conditions: Escherichia coli, read-out: inhibitory zone diameter.
Assay [5] relates to Shigella dysenteriae Shigae. The assay can be described thus: microbe, parasite or virus in culture. The class given is cell-based.
For assay [6], the system named is Bacillus anthracis No. 119. The assay can be described thus: microbe, parasite or virus in culture. The class given is cell-based.
Another assay has as its system Proteus species C73-33. The assay can be described thus: antibacterial activity (Minimum Inhibitory Concentration). Type of assay: cell-based.
In the next assay the test system is E. coli C73-4. The assay is described as above. The class given is cell-based. Conditions: Escherichia coli, C734.
For a further assay, the system named is Proteus species C73-34. The description is as above. Type of assay: cell-based.
Assay [7] has as its system Bacillus subtilis ATCC 6633. The assay is described as above. The class given is cell-based. The settings on record: Bacillus subtilis, ATCC6633.
The test system of assay [8] is Staphylococcus albus PCI-1200A. The description is as above. Type of assay: cell-based. Conditions: Staphylococcus, PCI1200A.
The subject of assay [9] is Staphylococcus aureus Smith S-424. The assay is described as above. The class given is cell-based. The settings on record: Staphylococcus aureus, SMITHS424.
A further assay has as its system Proteus species C73-25. The assay is described as above. Type of assay: cell-based.
Assay [10] deals with Enterococcus species C73-17. The assay is described as above. Conditions: Enterococcus, C7317. Type of assay: cell-based.
The subject of assay [11] is Staphylococcus aureus C73-21. Described as above. The class given is cell-based. The settings on record: Staphylococcus aureus, C7321.
Assay [12] deals with Staphylococcus aureus C73-10. The description is as above. Type of assay: cell-based. Conditions: Staphylococcus aureus, C7310.
Assay [13] deals with Staphylococcus aureus No. 26. The description is as above. Type of assay: cell-based. Conditions: Staphylococcus aureus, NO.26.
In assay [14] the test system is Vibrio parahaemolyticus K-5. The description is as above. Type of assay: cell-based. The settings on record: Vibrio parahaemolyticus, K5.
The subject of another assay is Proteus morganii Kono. Described as above. Type of assay: cell-based. The settings on record: Morganella morganii.
The test system of assay [15] is Salmonella species C73-30. Described as above. Type of assay: cell-based. Conditions: C7330.
Another assay relates to Proteus species C73-23. Described as above. The class given is cell-based.
The test system of assay [16] is Vibrio parahaemolyticus K-3. Described as above. The class given is cell-based. Conditions: Vibrio parahaemolyticus, K3.
Assay [17] deals with Enterococcus species C73-33. Described as above. The class given is cell-based. The settings on record: Enterococcus, C7333.
For the next assay, the system named is E. coli C73-12. The description is as above. Type of assay: cell-based. The settings on record: Escherichia coli, C7312.
The subject of assay [18] is Staphylococcus aureus 209P JC-1. The description is as above. The class given is cell-based. Conditions: Staphylococcus aureus, 209P.
Assay [19] relates to Vibrio parahaemolyticus K-7. The description is as above. The class given is cell-based. The settings on record: Vibrio parahaemolyticus, K7.
A further assay has as its system Klebsiella pneumoniae. The assay is described as above. Type of assay: cell-based.
Assay [20] deals with Staphylococcus aureus C73-4. The description is as above. The class given is cell-based. Conditions: Staphylococcus aureus, C734.
In a further assay the test system is E. coli C73-1. The assay is described as above. The class given is cell-based. Conditions: Escherichia coli, C731.

Consider `NC[C@@H]1CC[C@@H](N)[C@@H](O[C@H]2[C@H](O)[C@@H](O)[C@H](N)C[C@@H]2N)O1` [3',4'-deoxyneamine], for which the “antimicrobial activities against antibiotic-resistant microorganisms” value in assay [1] was “exhibits antimicrobial activities against various antibiotic-resistant microorganisms”.
As to `NC[C@H]1O[C@H](O[C@H]2[C@H](O)[C@@H](O)[C@H](N)C[C@@H]2N)[C@H](N)[C@@H](O)[C@@H]1O` [Neamine, neamine, reference compound], in the assay with Mycobacterium 607, the zone of inhibition at 62.5 µg/mL was 0 mm, the zone of inhibition at 125 µg/mL turned out to be 0 mm, the zone of inhibition at 250 µg/mL worked out at 14.8 mm and the zone of inhibition at 500 µg/mL is 20.4 mm. In the assay on Mycobacterium 607, the zone of inhibition at 1000 µg/mL stood at 26.4 mm and the zone of inhibition at 2000 µg/mL came out at 32.5 mm. Also, the zone of inhibition at 2000 µg/mL with Pseudomonas 1007 was determined as 0 mm. The zone of inhibition at 2000 µg/mL with Klebsiella 7 worked out at 0 mm. Further, in [2], the zone of inhibition at 7.8 µg/mL was found to be 11.5 mm, the zone of inhibition at 15.6 µg/mL was determined as 14 mm, the zone of inhibition at 31.2 µg/mL came to 17 mm and the zone of inhibition at 62.5 µg/mL is 19.9 mm. For the same compound, in assay [2], the zone of inhibition at 125 µg/mL was found to be 23 mm, the zone of inhibition at 250 µg/mL was 25 mm, the zone of inhibition at 500 µg/mL was determined as 28.7 mm and the zone of inhibition at 1000 µg/mL was 31 mm. The zone of inhibition at 2000 µg/mL in assay [2] was determined as 33.5 mm. Moreover, in the assay with E. coli K-12, the zone of inhibition at 7.8 µg/mL was 0 mm, the zone of inhibition at 15.6 µg/mL was determined as 0 mm, the zone of inhibition at 31.2 µg/mL came to 11.4 mm and the zone of inhibition at 62.5 µg/mL came to 14.3 mm. In the assay on E. coli K-12, the zone of inhibition at 125 µg/mL was 17.2 mm, the zone of inhibition at 250 µg/mL came to 20.4 mm, the zone of inhibition at 500 µg/mL is 22.6 mm and the zone of inhibition at 1000 µg/mL is 25.2 mm. In the assay with E. coli K-12, the zone of inhibition at 2000 µg/mL was 27.4 mm. In addition, the zone of inhibition at 2000 µg/mL with Klebsiella 6 amounted to 0 mm. Also, in assay [3], the zone of inhibition at 7.8 µg/mL was 0 mm, the zone of inhibition at 15.6 µg/mL came to 0 mm, the zone of inhibition at 31.2 µg/mL was found to be 0 mm and the zone of inhibition at 62.5 µg/mL was 10 mm. Further, in assay [3], the zone of inhibition at 125 µg/mL stood at 13 mm, the zone of inhibition at 250 µg/mL turned out to be 15.3 mm, the zone of inhibition at 500 µg/mL was 18.3 mm and the zone of inhibition at 1000 µg/mL turned out to be 20.7 mm. Further, the zone of inhibition at 2000 µg/mL in assay [3] was 22.8 mm. Also, in assay [4], the zone of inhibition at 1000 µg/mL is 0 mm and the zone of inhibition at 2000 µg/mL was determined as 12.3 mm.
On to `NC[C@H]1O[C@H](O[C@H]2[C@H](O)[C@@H](O)[C@H](N)C[C@@H]2N)[C@H](N)[C@@H](O)[C@@H]1O` [Neomycin A, reference compound], for which the MIC in assay [5] is 12.5 µg/mL (≈ 38.8 µM); in [6], 12.5 µg/mL (≈ 38.8 µM); against Proteus species C73-33 it was 100 µg/mL (≈ 310 µM); in the assay on E. coli C73-4 it was 25 µg/mL (≈ 77.6 µM); with Proteus species C73-34, 25 µg/mL (≈ 77.6 µM); in assay [7], 1.56 µg/mL (≈ 4.84 µM). Further, the MIC in assay [8] is 0.78 µg/mL (≈ 2.42 µM); in [9] it was 1.56 µg/mL (≈ 4.84 µM); against Proteus species C73-25 it was 6.25 µg/mL (≈ 19.4 µM); in assay [10], 100 µg/mL (≈ 310 µM); in [11], 0.78 µg/mL (≈ 2.42 µM); in assay [12], 3.13 µg/mL (≈ 9.71 µM). In addition, the MIC stood at 3.13 µg/mL (≈ 9.71 µM) in assay [13]; 50 µg/mL (≈ 155 µM) in assay [14]; 12.5 µg/mL (≈ 38.8 µM) in the assay on Proteus morganii Kono; 25 µg/mL (≈ 77.6 µM) in assay [15]; 25 µg/mL (≈ 77.6 µM) against Proteus species C73-23; 1.56 µg/mL (≈ 4.84 µM) in assay [16]. The MIC was 12.5 µg/mL (≈ 38.8 µM) in assay [17]; 12.5 µg/mL (≈ 38.8 µM) with E. coli C73-12; 0.78 µg/mL (≈ 2.42 µM) in assay [18]; 50 µg/mL (≈ 155 µM) in assay [19]; 12.5 µg/mL (≈ 38.8 µM) in the assay on Klebsiella pneumoniae; 3.13 µg/mL (≈ 9.71 µM) in [20]. In the assay with E. coli C73-1, this compound registered an MIC of 25 µg/mL (≈ 77.6 µM).
